Data reported in patent publication US12318398B2, “MST1 kinase inhibitor and use thereof” (priority 2018, dated 2025).
Read-outs that look alike come from different tables or passages of the source.

Columns and labels:
[1] = target: MST1 (Homo sapiens (Human), UniProt Q13043); assay: In vitro enzyme activity test (ADP-GLO); format: biochemical
Procedure: The IC50 values of the compounds against MST1 were determined. The protein kinase MST1 and the substrate were obtained from commercial sources.
5.4 μL of protein kinase MST1 diluted to a certain concentration (final concentration was 2.5 ng/μL) and 1 μL of serially diluted drug compounds and control compound XMU-MP-1 were taken to react at room temperature for 10 minutes (final drug concentrations were 10 μM, 1 μM, 0.3 μM, 0.1 μM, 0.03 μM, 0.01 μM, 0.003 μM, 0.001 μM, respectively).
6 μL of a mixture of ATP (with a final reaction concentration of 50 μM) and substrate was added to the above reaction tube to react at 37° C. for 1 hour. The reaction buffer was 40 mM Tris, 7.5; 20 mM MgCl2; 0.1 mg/ml BSA; 50 μM DTT.
5 μL of the kinase mixture after the reaction was taken to a 384-well plate, and 5 μL of ADP-GLO™ reagent was added thereto. After reaction at room temperature for 40 minutes, the kinase reaction was terminated and the remaining ATP was consumed.
10 μL of a kinase detection reagent was added to convert ADP into ATP, and a coupled luciferase/luciferin reaction was utilized to detect the newly synthesized ATP. Envision was used to read and plot the data, and calculate the IC50 value.

[2] = test system: MIN-6 cells; assay: Proliferation of MIN-6 cells (cell counter); details: 0.3-3 μM, 72 hours, as the drug concentration increases
Procedure: (§1) The effects of compound 1 and the control compound XMU-MP-1 on MST1 signaling pathway such as autophosphorylation of MST1, apoptosis signaling pathway such as cleavage of four proteins Caspase9/7/3 and PARP, expression of BIM, BAX, BCL-2, BCL-XL protein, proliferation-related signaling pathway such as autophosphorylation of AKT and ERK, and phosphorylation and protein expression of insulin secretion transcription factor PDX1 were tested in mouse pancreatic β-cells, MIN-6 cells (Hunan Fenghuishengwu technology Co., Ltd.). Compound 1 of different concentrations (0 μM, 0.3 μM, 1 μM, 3 μM in DMSO) and XMU-MP-1 of 1 μM (in DMSO) were used to treat the cell line for 72 hours in a medium with a glucose content of 33.3 mM, respectively. One of the control DMSO group involved 5.5 mM glucose and the other one involved 33.3 mM glucose. The samples were collected.
JIMBIO cell counter (EXCEL HERO TECHNOLOGY LIMITED) was used to detect the effect on the proliferation of MIN-6 cells after 72 hours of the administration.

[3] = test system: Caspase9/7/3, PARP, BIM, BCL-XL; assay: Effect on apoptosis signaling pathway of pancreatic β cells; format: cell-based, mouse; details: MIN-6 cells, 1 μM, 72 hours, 33.3 mM glucose
Procedure: as §1

[4] = test system: autophosphorylation of AKT and ERK; assay: Effect on proliferation-related signaling pathway of pancreatic β cells; format: cell-based, mouse; details: MIN-6 cells, 72 hours, 33.3 mM glucose
Procedure: as §1

[5] = test system: C57BL/6 mice; assay: Liver injury repair experiment (paracetamol/APAP-induced); format: in vivo
Procedure: C57BL/6 mice, male, 20 g, were maintained in a SPF animal room. Thirty C57BL/6 mice were fasted for 12 hours overnight, and 5 mice of which were intraperitoneally injected with normal saline to act as a normal control group, and the other 25 mice were intraperitoneally injected with paracetamol (APAP) (purchased from Sigma)-600 mg/kg, and randomly divided into 5 groups after 30 minutes, wherein the 5 groups include vehicle (5% DMSO in water), compound 1-1-po, compound 1-2-po, compound 1-4-po, XMU-MP-1-ip groups. Mice in the vehicle group were administered intragastrically with vehicle control; mice in the compound 1-1-po, compound 1-2-po, compound 1-4-po groups were administered intragastrically with compound 1 at 1 mg/kg, 2 mg/kg or 4 mg/kg, respectively; mice in the XMU-MP-1-ip group were intraperitoneally administered with the control compound XMU-MP-1 at 1 mg/kg. After the administration, the body weight of the mice was monitored and the survival status of the mice was observed.

[6] = test system: autophosphorylation of MST1; assay: Effect on MST1 signaling pathway of pancreatic β cells; format: cell-based, mouse; details: MIN-6 cells, 1 μM, 72 hours, 33.3 mM glucose
Procedure: as §1

[7] = test system: PDX1; assay: Effect on insulin secretion transcription factor PDX1 in pancreatic β cells; format: cell-based, mouse; details: MIN-6 cells, 72 hours, 33.3 mM glucose
Procedure: as §1

[8] = ATP 50 μM, 37° C. 1 hour, read-out: MST1 (IC50/μM)
[9] = read-out: MST1 (IC50/μM), ATP 50 μM, 37° C. 1 hour

Sequence of MST1 (Q13043 whole entry): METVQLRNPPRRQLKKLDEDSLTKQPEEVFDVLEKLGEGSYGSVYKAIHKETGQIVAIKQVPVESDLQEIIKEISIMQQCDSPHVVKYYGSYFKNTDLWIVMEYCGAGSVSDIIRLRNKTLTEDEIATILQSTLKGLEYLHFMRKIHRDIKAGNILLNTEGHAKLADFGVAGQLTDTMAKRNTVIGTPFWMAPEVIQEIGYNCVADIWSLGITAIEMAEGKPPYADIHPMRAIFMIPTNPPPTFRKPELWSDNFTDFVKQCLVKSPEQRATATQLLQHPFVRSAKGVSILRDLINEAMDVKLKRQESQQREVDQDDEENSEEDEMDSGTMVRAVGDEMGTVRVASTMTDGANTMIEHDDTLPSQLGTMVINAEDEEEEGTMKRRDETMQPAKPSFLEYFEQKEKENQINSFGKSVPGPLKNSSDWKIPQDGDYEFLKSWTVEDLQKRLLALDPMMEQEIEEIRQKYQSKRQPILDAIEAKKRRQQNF

Row | Structure (SMILES) | IC50 [1, 8] [µM] | IC50 [1, 9] [µM] | also measured
1 | CN1C(=O)C2(CCC2)N(C)c2nc(Nc3ccc(S(N)(=O)=O)cc3)ncc21 [Compound 15, 4-((5′,8′-dimethyl-6′-oxo-5′,8′-dihydro-6′H-spiro[cyclobutan-1,7′-pteridin]-2′-yl)amino)benzsulfamide] | 0.141 |  | 
2 | CN1C(=O)C(c2c(F)cccc2F)N(C)c2nc(Nc3ccc(S(=O)(=O)NC4CC4)cc3)ncc21 (centres unmarked) [Compound 27, N-cyclopropyl-4-((7-(2,6-difluorophenyl)-5,8-dimethyl-6-oxo-5,6,7,8-tetrahydropteridin-2-yl)amino)benzsulfamide] |  | 0.113 | 
3 | CN1C(=O)C(c2ccccc2C(F)(F)F)N(C)c2nc(Nc3ccc(S(N)(=O)=O)cc3)ncc21 (centres unmarked) [Compound 22, 4-((5,8-dimethyl-6-oxo-7-(2-(trifluoromethyl)phenyl)-5,6,7,8-tetrahydropteridin-2-yl)amino)benzsulfamide] | 0.0563 |  | 
4 | CN1C(=O)C(c2c(F)cccc2F)N(C)c2nc(Nc3ccc(S(=O)(=O)NCC4CC4)cc3)ncc21 (centres unmarked) [Compound 33, N-(cyclopropylmethyl)-4-((7-(2,6-difluorophenyl)-5,8-dimethyl-6-oxo-5,6,7,8-tetrahydropteridin-2-yl)amino)benzsulfamide] | 0.0796 |  | 
5 | CCCC1C(=O)N(C)c2cnc(Nc3ccc(S(N)(=O)=O)cc3)nc2N1C (centres unmarked) [Compound 17, 4-((5,8-dimethyl-6-oxo-7-propyl-5,6,7,8-tetrahydropteridin-2-yl)amino)benzsulfamide] | 0.206 |  | 
6 | CN1C(=O)C(c2ccccc2)N(C)c2nc(Nc3ccc(S(=O)(=O)NC4CC4)cc3)ncc21 (centres unmarked) [Compound 6, N-cyclopropyl-4-((5,8-dimethyl-6-oxo-7-phenyl-5,6,7,8-tetrahydropteridin-2-yl)amino)benzsulfamide] |  | 0.143 | 
7 | CN1C(=O)C2(CCCC2)N(C)c2nc(Nc3ccc(S(N)(=O)=O)cc3)ncc21 [Compound 14, 4-((5′,8′-dimethyl-6′-oxo-5′,8′-dihydro-6′H-spiro[cyclopentan-1,7′-pteridin]-2′-yl)amino)benzsulfamide] | 0.129 |  | 
8 | CN1C(=O)C(c2ccccc2F)N(C)c2nc(Nc3ccc(S(N)(=O)=O)cc3)ncc21 (centres unmarked) [Compound 21, 4-((7-(2-fluorophenyl)-5,8-dimethyl-6-oxo-5,6,7,8-tetrahydropteridin-2-yl)amino)benzsulfamide] | 0.0753 |  | 
9 | CN1C(=O)C2(CC2)N(C)c2nc(Nc3ccc(S(N)(=O)=O)cc3)ncc21 [Compound 7, 4-((5′,8′-dimethyl-6′-oxo-5′,8′-dihydro-6′H-spiro[cyclopropan-1,7′-pteridin]-2′-yl)amino)benzsulfamide] | 0.103 |  | 
10 | CN1C(=O)C(c2cccs2)N(C)c2nc(Nc3ccc(S(N)(=O)=O)cc3)ncc21 (centres unmarked) [Compound 20, 4-((5,8-dimethyl-6-oxo-7-(thien-2-yl)-5,6,7,8-tetrahydropteridin-2-yl)amino)benzsulfamide] | 0.0879 |  | 
11 | Cc1ccccc1C1C(=O)N(C)c2cnc(Nc3ccc(S(N)(=O)=O)cc3)nc2N1C (centres unmarked) [Compound 25, 4-((5,8-dimethyl-6-oxo-7-(o-methylphenyl)-5,6,7,8-tetrahydropteridin-2-yl)amino)benzsulfamide] |  | 0.0227 | 
12 | CN1C(=O)C(c2c(F)cccc2F)N(C)c2nc(Nc3ccc(S(N)(=O)=O)cc3)ncc21 (centres unmarked) [Compound 1, 4-((7-(2,6-difluorophenyl)-5,8-dimethyl-6-oxo-5,6,7,8-tetrahydropteridin-2-yl)amino)benzsulfamide] |  | 0.023 | cell proliferation [2]: can promote cell proliferation; cleavage of the four proteins Caspase9/7/3 and PARP [3]: inhibit the cleavage; expression of pro-apoptosis-related proteins such as BIM [3]: down-regulate; expression of the anti-apoptotic protein BCL-XL [3]: promote the expression; AKT autophosphorylation [4]: does not affect; ERK autophosphorylation [4]: can activate; survival rate of the mice ([5]; 1 mg/kg intragastrically after APAP 600 mg/kg ip): 80%; survival of the mice ([5]; 2 mg/kg intragastrically after APAP 600 mg/kg ip): all escaped from death; survival of the mice ([5]; 4 mg/kg intragastrically after APAP 600 mg/kg ip): all escaped from death; weight of mice ([5]; after APAP 600 mg/kg ip, compound 1 po 1-4 mg/kg, XMU-MP-1 ip 1 mg/kg): can gradually recover; autophosphorylation of MST1 [6]: significantly inhibit; expression of PDX1 [7]: promotes the expression of PDX1 to a certain extent; phosphorylation of the transcription factor PDX1 [7]: a certain inhibitory effect
13 | CN1C(=O)C(c2c(F)cccc2F)N(C)c2nc(Nc3ccc(S(=O)(=O)N(C)C4CC4)cc3)ncc21 (centres unmarked) [Compound 32, N-cyclopropyl-4-((7-(2,6-difluorophenyl)-5,8-dimethyl-6-oxo-5,6,7,8-tetrahydropteridin-2-yl)amino)-N-methylbenzsulfamide] |  | 0.0316 | 
14 | CN1C(=O)C(C2CC2)N(C)c2nc(Nc3ccc(S(N)(=O)=O)cc3)ncc21 (centres unmarked) [Compound 19, 4-((7-cyclopropyl-5,8-dimethyl-6-oxo-5,6,7,8-tetrahydropteridin-2-yl)amino)benzsulfamide] | 0.137 |  | 
15 | CN1C(=O)[C@@H](c2ccccc2)N(C)c2nc(Nc3ccc(S(N)(=O)=O)cc3)ncc21 [Compound 10, (R)-4-((5,8-dimethyl-6-oxo-7-phenyl-5,6,7,8-tetrahydropteridin-2-yl)amino)benzsulfamide] |  | 0.0987 | 
16 | CN1C(=O)C(c2cccc(F)c2)N(C)c2nc(Nc3ccc(S(N)(=O)=O)cc3)ncc21 (centres unmarked) [Compound 11, 4-((7-(3-fluorophenyl)-5,8-dimethyl-6-oxo-5,6,7,8-tetrahydropteridin-2-yl)amino)benzsulfamide] | 0.134 |  | 
17 | CCNS(=O)(=O)c1ccc(Nc2ncc3c(n2)N(C)C(c2c(F)cccc2F)C(=O)N3C)cc1 (centres unmarked) [Compound 38, 4-((7-(2,6-difluorophenyl)-5,8-dimethyl-6-oxo-5,6,7,8-tetrahydropteridin-2-yl)amino)-N-ethylbenzsulfamide] |  | 0.0516 | 
18 | CN1C(=O)[C@H](c2ccccc2)N(C)c2nc(Nc3ccc(S(N)(=O)=O)cc3)ncc21 [Compound 4, (S)-4-((5,8-dimethyl-6-oxo-7-phenyl-5,6,7,8-tetrahydropteridin-2-yl)amino)benzsulfamide] |  | 0.197 | 
19 | CC(C)CC1C(=O)N(C)c2cnc(Nc3ccc(S(N)(=O)=O)cc3)nc2N1C (centres unmarked) [Compound 16, 4-((7-isobutyl-5,8-dimethyl-6-oxo-5,6,7,8-tetrahydropteridin-2-yl)amino)benzsulfamide] | 0.0767 |  | 
